From US6124284A, “Bicyclic amide derivatives and their use as muscle relaxants” (Glaxo Wellcome Inc., priority 1998, dated 2000)

Test system: rat
Test: Established adjuvant arthritis (adjuvant-induced polyarthritis in the rat)
Type: in vivo, female Lewis rats
Details: 50 mg/kg b.i.d.
Description: The procedures for this test have been described in detail by R. Vinegar, J. F. Truax, J. L. Selph. A. Lea, and P. R. Johnston (J. Immunopharmacol. 1:497-520, 1979). The rats used in these studies were female Lewis rats whose starting weight was 190±10 g. Arthritic rats were assigned to treatment groups consisting of six animals each. Fed rats were dosed by oral gavage starting on day 21 post adjuvant injection; therapy was continued until day 28. The incidence and severity of arthritic lesions were assessed using a modification of the scoring procedure described by H. L. F. Currey and M. Ziff (J. Exp. Med. 121:185-203, 1968). Briefly, the bilateral joints were scored for erythema, edema, and ankylosis as outlined below:
The maximal possible score per rat was 40. Experimental results were analyzed by one-way ANOVA, followed by post hoc comparisons of treatment effects versus untreated arthritic control using the Newman-Keuls test. The percent inhibition of each drug-treated group was calculated from the mean relative to the arthritic control.

## NC(=O)/C=C1\CCc2c(F)cc(F)cc21 [Example 5, (E)-2-(4,6 Difluoro-1-indanylidene)acetamide]
Oral gavage, days 22, 25, and 27, versus untreated arthritic control
  arthritic scores: significantly (p<0.01) lowered arthritic scores
Postmortem on day 27
  Spleen weight: significantly reduced (p<0.01)
  plasma fibrinogen: significantly reduced (p<0.01)
